Measured values as given in PubChem BioAssay AID248 (DTP/NCI, 2004).
Values joined by “and” are separate entries in the source; they are usually repeats but may differ in a detail not shown here. Identical values can stand only once. Inconclusive results and toxic doses are left out. No stated cut-off is given here; in the data, active means T/C of 150% or more; inactive means T/C below 125%.

Test system: L1210 leukemia ip in BDF1 mice, survival T/C
Experiment: NCI In Vivo Anticancer Drug Screen. Data for tumor model L1210 Leukemia (intraperitoneal) in B6D2F1 (BDF1) mice
Conditions: endpoint: mean survival time, higher = longer survival
Procedure, shortened: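 Each compound was tested against a transplantable tumor grown in mice. The endpoint was survival, with treated animals benchmarked against vehicle controls as a simple ratio.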

[1] = dose: 100.0 mg/kg/injection, schedule: Q01DX001 (ip), vehicle: carboxymethylcellulose (CMC)
[2] = dose: 100.0 mg/kg/injection, schedule: Q04DX002 (ip), vehicle: Klucel (hydroxypropylcellulose) (HPC)
[3] = dose: 200.0 mg/kg/injection, schedule: Q01DX001 (ip), vehicle: carboxymethylcellulose (CMC)
[4] = dose: 200.0 mg/kg/injection, schedule: Q04DX002 (ip), vehicle: Klucel (hydroxypropylcellulose) (HPC)
[5] = dose: 400.0 mg/kg/injection, schedule: Q04DX002 (ip), vehicle: Klucel (hydroxypropylcellulose) (HPC)
[6] = dose: 100.0 mg/kg/injection, schedule: Q01DX009 (ip), vehicle: saline with Tween-80
[7] = dose: 400.0 mg/kg/injection, schedule: Q01DX009 (ip), vehicle: saline with Tween-80
[8] = dose: 100.0 mg/kg/injection, schedule: Q04DX003 (ip), vehicle: saline with Tween-80
[9] = dose: 100.0 mg/kg/injection, schedule: Q01DX001 (ip), vehicle: Klucel (hydroxypropylcellulose) (HPC)
[10] = dose: 200.0 mg/kg/injection, schedule: Q01DX001 (ip), vehicle: Klucel (hydroxypropylcellulose) (HPC)
[11] = dose: 50.0 mg/kg/injection, schedule: Q01DX001 (ip), vehicle: Klucel (hydroxypropylcellulose) (HPC)
[12] = dose: 400.0 mg/kg/injection, schedule: Q01DX001 (ip), vehicle: carboxymethylcellulose (CMC)

Measured: T/C

CC(=O)Nc1ccc(C(=O)O)cc1[N+](=O)[O-]
inactive: [1] 99 % of control | dose: 100.0 mg/kg/injection, schedule: Q01DX009 (ip), vehicle: carboxymethylcellulose (CMC) 95 % of control and 105 % of control | [2] 95 % of control | dose: 100.0 mg/kg/injection, schedule: Q04DX002 (ip), vehicle: carboxymethylcellulose (CMC) 106 % of control and 90 % of control | dose: 100.0 mg/kg/injection, schedule: Q04DX003 (ip), vehicle: carboxymethylcellulose (CMC) 97 % of control | [3] 97 % of control | dose: 200.0 mg/kg/injection, schedule: Q01DX009 (ip), vehicle: carboxymethylcellulose (CMC) 98 % of control and 107 % of control | [4] 98 % of control | dose: 200.0 mg/kg/injection, schedule: Q04DX002 (ip), vehicle: carboxymethylcellulose (CMC) 93 % of control and 101 % of control | dose: 200.0 mg/kg/injection, schedule: Q04DX003 (ip), vehicle: carboxymethylcellulose (CMC) 105 % of control | dose: 400.0 mg/kg/injection, schedule: Q01DX009 (ip), vehicle: carboxymethylcellulose (CMC) 93 % of control and 91 % of control | [5] 98 % of control | dose: 400.0 mg/kg/injection, schedule: Q04DX002 (ip), vehicle: carboxymethylcellulose (CMC) 93 % of control and 90 % of control | dose: 400.0 mg/kg/injection, schedule: Q04DX003 (ip), vehicle: carboxymethylcellulose (CMC) 91 % of control

O=C(O)c1cccc(Nc2ccccc2C(=O)O)c1
inactive: [1] 90 % of control | [3] 92 % of control

CC(C)(O)C1CC1
inactive: dose: 100.0 mg/kg/injection, schedule: Q01DX005 (ip), vehicle: saline with Tween-80 97 % of control | [6] 88 % of control | dose: 100.0 mg/kg/injection, schedule: Q04DX002 (ip), vehicle: saline with Tween-80 101 % of control | dose: 200.0 mg/kg/injection, schedule: Q01DX005 (ip), vehicle: saline with Tween-80 94 % of control | dose: 200.0 mg/kg/injection, schedule: Q01DX009 (ip), vehicle: saline with Tween-80 94 % of control | dose: 200.0 mg/kg/injection, schedule: Q04DX002 (ip), vehicle: saline with Tween-80 108 % of control | dose: 400.0 mg/kg/injection, schedule: Q01DX005 (ip), vehicle: saline with Tween-80 101 % of control | [7] 91 % of control | dose: 400.0 mg/kg/injection, schedule: Q04DX002 (ip), vehicle: saline with Tween-80 96 % of control

CSc1nnnn1-c1ccccc1
inactive: dose: 100.0 mg/kg/injection, schedule: Q04DX003 (ip), vehicle: acetone 100 % of control | [8] 102 % of control | dose: 200.0 mg/kg/injection, schedule: Q04DX003 (ip), vehicle: saline with Tween-80 100 % of control | dose: 400.0 mg/kg/injection, schedule: Q04DX003 (ip), vehicle: acetone 100 % of control

COc1cc(C)oc(=O)c1
inactive: [9] 110 % of control | dose: 100.0 mg/kg/injection, schedule: Q01DX001 (ip), vehicle: saline 98 % of control | dose: 100.0 mg/kg/injection, schedule: Q01DX009 (ip), vehicle: saline 93 % of control and 101 % of control | dose: 100.0 mg/kg/injection, schedule: Q04DX003 (ip), vehicle: saline 97 % of control | [10] 104 % of control | dose: 200.0 mg/kg/injection, schedule: Q01DX001 (ip), vehicle: saline 98 % of control | dose: 200.0 mg/kg/injection, schedule: Q01DX009 (ip), vehicle: saline 93 % of control and 104 % of control | dose: 200.0 mg/kg/injection, schedule: Q04DX003 (ip), vehicle: saline 93 % of control | dose: 400.0 mg/kg/injection, schedule: Q01DX001 (ip), vehicle: Klucel (hydroxypropylcellulose) (HPC) 106 % of control | dose: 400.0 mg/kg/injection, schedule: Q01DX001 (ip), vehicle: saline 102 % of control | [7] 108 % of control | dose: 400.0 mg/kg/injection, schedule: Q01DX009 (ip), vehicle: saline 93 % of control | dose: 400.0 mg/kg/injection, schedule: Q04DX003 (ip), vehicle: saline 92 % of control

CCCCCc1cc(=O)[nH]c(=O)[nH]1
inactive: [11] 97 % of control | [9] 96 % of control | [10] 96 % of control

C[N+](C)(Cc1ccc(Cl)cc1)C1c2ccccc2-c2ccccc21
inactive: dose: 6.0 mg/kg/injection, schedule: Q04DX003 (ip), vehicle: saline 93 % of control | dose: 12.0 mg/kg/injection, schedule: Q04DX003 (ip), vehicle: saline 102 % of control | dose: 12.5 mg/kg/injection, schedule: Q01DX009 (ip), vehicle: saline 106 % of control | dose: 25.0 mg/kg/injection, schedule: Q01DX009 (ip), vehicle: saline 101 % of control | dose: 25.0 mg/kg/injection, schedule: Q04DX003 (ip), vehicle: saline 94 % of control and 91 % of control | dose: 50.0 mg/kg/injection, schedule: Q01DX009 (ip), vehicle: saline 98 % of control | dose: 50.0 mg/kg/injection, schedule: Q04DX003 (ip), vehicle: saline 87 % of control

COc1cc(N(CCCl)CCCl)c(OC)cc1C=Nc1cccc(F)c1
active: [12] 153 % of control
inactive: dose: 12.5 mg/kg/injection, schedule: Q01DX001 (ip), vehicle: Klucel (hydroxypropylcellulose) (HPC) 96 % of control | dose: 13.0 mg/kg/injection, schedule: Q01DX009 (ip), vehicle: carboxymethylcellulose (CMC) 116 % of control | dose: 20.0 mg/kg/injection, schedule: Q01DX001 (ip), vehicle: Klucel (hydroxypropylcellulose) (HPC) 117 % of control | dose: 20.0 mg/kg/injection, schedule: Q01DX009 (ip), vehicle: carboxymethylcellulose (CMC) 120 % of control | dose: 25.0 mg/kg/injection, schedule: Q01DX001 (ip), vehicle: Klucel (hydroxypropylcellulose) (HPC) 101 % of control | dose: 30.0 mg/kg/injection, schedule: Q01DX009 (ip), vehicle: carboxymethylcellulose (CMC) 118 % of control | [11] 98 % of control | dose: 75.0 mg/kg/injection, schedule: Q01DX001 (ip), vehicle: Klucel (hydroxypropylcellulose) (HPC) 101 % of control and 118 % of control | dose: 177.0 mg/kg/injection, schedule: Q01DX001 (ip), vehicle: carboxymethylcellulose (CMC) 122 % of control | [3] 102 % of control | dose: 600.0 mg/kg/injection, schedule: Q01DX001 (ip), vehicle: carboxymethylcellulose (CMC) 124 % of control

O=C(CCl)Oc1c(Cl)c(Cl)c(Cl)c(Cl)c1Cl
inactive: dose: 6.25 mg/kg/injection, schedule: Q04DX003 (ip), vehicle: alcohol 100 % of control | dose: 12.5 mg/kg/injection, schedule: Q04DX003 (ip), vehicle: alcohol 98 % of control | dose: 25.0 mg/kg/injection, schedule: Q04DX003 (ip), vehicle: alcohol 98 % of control | dose: 100.0 mg/kg/injection, schedule: Q04DX003 (ip), vehicle: alcohol 111 % of control

CCOCN1CCCC1
inactive: dose: 25.0 mg/kg/injection, schedule: Q01DX009 (ip), vehicle: saline with Tween-80 101 % of control | dose: 50.0 mg/kg/injection, schedule: Q01DX009 (ip), vehicle: saline with Tween-80 96 % of control | dose: 50.0 mg/kg/injection, schedule: Q04DX003 (ip), vehicle: saline with Tween-80 91 % of control | dose: 100.0 mg/kg/injection, schedule: Q01DX001 (ip), vehicle: saline with Tween-80 104 % of control | [6] 95 % of control | [8] 103 % of control | dose: 200.0 mg/kg/injection, schedule: Q01DX001 (ip), vehicle: saline with Tween-80 110 % of control

CCOC(=O)c1cnc(N(C)CC(=O)O)[nH]c1=O
inactive: [2] 94 % of control | [4] 94 % of control | [5] 107 % of control

O=C1OCC(C(=O)c2ccccc2)C1=Nc1ccccc1O (configuration not stated)
inactive: dose: 50.0 mg/kg/injection, schedule: Q01DX001 (ip), vehicle: carboxymethylcellulose (CMC) 94 % of control | [1] 100 % of control | [3] 100 % of control | [12] 92 % of control

Cc1ccc(C)c(NC(=O)Oc2ccc3ccccc3c2)c1
inactive: dose: 100.0 mg/kg/injection, schedule: Q01DX009 (ip), vehicle: Klucel (hydroxypropylcellulose) (HPC) 93 % of control | dose: 100.0 mg/kg/injection, schedule: Q04DX003 (ip), vehicle: Klucel (hydroxypropylcellulose) (HPC) 107 % of control | dose: 200.0 mg/kg/injection, schedule: Q04DX003 (ip), vehicle: Klucel (hydroxypropylcellulose) (HPC) 107 % of control | dose: 400.0 mg/kg/injection, schedule: Q01DX009 (ip), vehicle: Klucel (hydroxypropylcellulose) (HPC) 91 % of control | dose: 400.0 mg/kg/injection, schedule: Q04DX003 (ip), vehicle: Klucel (hydroxypropylcellulose) (HPC) 97 % of control
